Where two headings read alike, the source gives them in different places.
Columns and labels:
[1] = Scavenging of the diphenylpicrylhydrazyl (DPPH) radical; settings: average ± SD; for DPPH % scavenging at 10.4 µg/mL: sample concentration 10.4 µg/mL, 5 min, values marked ^; for DPPH IC50 (concentration to give 50% scavenging): 5 min reaction, A517, values marked #, triplicate
Description: Scavenging activity towards the DPPH radical was carried out as previously described [18]. Briefly, to 2.95 mL of a methanolic solution of DPPH (A517 1.0), 50 µL of the test compound (dissolved in DMSO or MeOH) was added. The mixture was stirred, and the decrease in UV absorbance at 517 nm was measured over a period of 5 min. Percent radical scavenging was calculated as 100 × (Astart − Aend)/(Astart), where Astart is the absorbance before addition of the test compound and Aend is the absorbance value after 5 min of reaction time. Values were corrected for absorbance of the test substances.

[2] = molecular target: T1, α-glucosidase from baker's yeast (Saccharomyces cerevisiae, UniProt P53341); assay: biochemical; settings: 15 min, pH 7.0, average ± SD, triplicate
T1 construct: purchased Sigma-Aldrich
Description: (§1) Procyanidin B2 and B5 reference compounds were obtained from Plant Polyphenols LLC (Boyce, LA, USA). All other reagents were of the highest purity available.
The α-glucosidase inhibitory activity was determined by a slight modification of the procedure reported by Matsui et al.. The enzyme solution was set at 800 mU/mL of α-glucosidase in a 50 mM phosphate buffer (pH = 7.0) containing 100 mM sodium chloride. For each assay, 20 µL of the test solution in DMSO or MeOH and 80 µL of the enzyme solution were preincubated at 37 °C for 5 min. The reaction was started by adding 1.9 mL of substrate solution (0.7 mM PNP-G in the buffer), and the solution was then incubated at 37 °C for 15 min. After the reaction had been stopped by adding 2.0 mL of a 0.5 M Tris solution, the absorbance of PNP released from PNP-G at 400 nm was measured. Percent enzyme inhibition was calculated as 100 × (AB − AS)/(AB), where AB and AS represent the absorbance of the blank and sample, respectively.

[3] = molecular target: T2, 15-LO from soybeans (Glycine max, UniProt P08170); assay: Inhibition of 15-lipoxygenase (15-LO); assay type: biochemical, soybean; settings: borate buffer pH 9.00, average ± SD, triplicate
T2 construct: purchased Sigma-Aldrich
T2 sequence (P08170 1-839): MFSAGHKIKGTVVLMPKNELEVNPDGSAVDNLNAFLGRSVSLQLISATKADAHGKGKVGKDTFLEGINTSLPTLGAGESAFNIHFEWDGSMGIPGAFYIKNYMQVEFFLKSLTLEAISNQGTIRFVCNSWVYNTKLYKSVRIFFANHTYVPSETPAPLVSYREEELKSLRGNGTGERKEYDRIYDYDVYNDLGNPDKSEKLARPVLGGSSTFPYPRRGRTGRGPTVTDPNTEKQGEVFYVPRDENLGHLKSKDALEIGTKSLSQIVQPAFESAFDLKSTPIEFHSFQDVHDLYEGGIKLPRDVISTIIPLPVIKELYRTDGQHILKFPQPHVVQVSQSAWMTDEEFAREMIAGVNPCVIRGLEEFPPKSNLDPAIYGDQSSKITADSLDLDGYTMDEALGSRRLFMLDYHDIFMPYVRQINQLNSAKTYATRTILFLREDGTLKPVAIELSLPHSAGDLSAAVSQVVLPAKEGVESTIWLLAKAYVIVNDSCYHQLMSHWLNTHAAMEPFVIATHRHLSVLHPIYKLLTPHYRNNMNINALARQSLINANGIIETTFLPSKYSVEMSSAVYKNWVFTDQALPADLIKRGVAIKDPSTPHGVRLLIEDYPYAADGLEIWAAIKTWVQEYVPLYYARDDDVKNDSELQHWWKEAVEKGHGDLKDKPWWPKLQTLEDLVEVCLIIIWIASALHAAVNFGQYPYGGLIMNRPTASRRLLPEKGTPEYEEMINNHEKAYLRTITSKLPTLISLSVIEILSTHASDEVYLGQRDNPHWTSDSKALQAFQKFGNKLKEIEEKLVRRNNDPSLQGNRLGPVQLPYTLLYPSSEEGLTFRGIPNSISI

[4] = molecular target: T3, XO from bovine milk (Bos taurus, UniProt P80457); assay: Inhibition of xanthine oxidase (XO), hypoxanthine as substrate; assay type: biochemical; settings: average ± SD
T3 construct: purchased Sigma-Aldrich; host or cells: bovine milk
Description: as §1
The XO inhibitory activity with hypoxanthine as the substrate was measured spectrophotometrically based on the procedure of Noro et al., with some modifications. The assay mixture consisting of 50 µL of test compound (dissolved in DMSO or MeOH) or (for blanks) DMSO or MeOH alone, 1.85 mL of 50 mM sodium-potassium phosphate buffer (pH = 7.5) and 100 µL of enzyme solution (1.8 U/mL in 50 mM sodium-potassium phosphate buffer, pH = 7.5) was prepared immediately before use. Substrate solution (1.0 mL, 20 µg/mL hypoxanthine in distilled water) was added. The mixture was stirred, and the increase in absorbance at 290 nm was measured over a period of 5 min. Percent enzyme inhibition was calculated as 100 × [(∆A1 − ∆A2)/∆A1], where ∆A1 and ∆A2 are values for the increase in A290 for the sample without test substance and with test substance, respectively.

[5] = 37 °C, read-out: α-Glucosidase IC50 (converted)
[6] = linoleic acid 134 µM, read-out: 15-Lipoxygenase IC50 (converted)
[7] = read-out: Xanthine oxidase % inhibition at a concentration of 42 µg/mL, 42 µg/mL

T3 sequence (P80457 whole entry): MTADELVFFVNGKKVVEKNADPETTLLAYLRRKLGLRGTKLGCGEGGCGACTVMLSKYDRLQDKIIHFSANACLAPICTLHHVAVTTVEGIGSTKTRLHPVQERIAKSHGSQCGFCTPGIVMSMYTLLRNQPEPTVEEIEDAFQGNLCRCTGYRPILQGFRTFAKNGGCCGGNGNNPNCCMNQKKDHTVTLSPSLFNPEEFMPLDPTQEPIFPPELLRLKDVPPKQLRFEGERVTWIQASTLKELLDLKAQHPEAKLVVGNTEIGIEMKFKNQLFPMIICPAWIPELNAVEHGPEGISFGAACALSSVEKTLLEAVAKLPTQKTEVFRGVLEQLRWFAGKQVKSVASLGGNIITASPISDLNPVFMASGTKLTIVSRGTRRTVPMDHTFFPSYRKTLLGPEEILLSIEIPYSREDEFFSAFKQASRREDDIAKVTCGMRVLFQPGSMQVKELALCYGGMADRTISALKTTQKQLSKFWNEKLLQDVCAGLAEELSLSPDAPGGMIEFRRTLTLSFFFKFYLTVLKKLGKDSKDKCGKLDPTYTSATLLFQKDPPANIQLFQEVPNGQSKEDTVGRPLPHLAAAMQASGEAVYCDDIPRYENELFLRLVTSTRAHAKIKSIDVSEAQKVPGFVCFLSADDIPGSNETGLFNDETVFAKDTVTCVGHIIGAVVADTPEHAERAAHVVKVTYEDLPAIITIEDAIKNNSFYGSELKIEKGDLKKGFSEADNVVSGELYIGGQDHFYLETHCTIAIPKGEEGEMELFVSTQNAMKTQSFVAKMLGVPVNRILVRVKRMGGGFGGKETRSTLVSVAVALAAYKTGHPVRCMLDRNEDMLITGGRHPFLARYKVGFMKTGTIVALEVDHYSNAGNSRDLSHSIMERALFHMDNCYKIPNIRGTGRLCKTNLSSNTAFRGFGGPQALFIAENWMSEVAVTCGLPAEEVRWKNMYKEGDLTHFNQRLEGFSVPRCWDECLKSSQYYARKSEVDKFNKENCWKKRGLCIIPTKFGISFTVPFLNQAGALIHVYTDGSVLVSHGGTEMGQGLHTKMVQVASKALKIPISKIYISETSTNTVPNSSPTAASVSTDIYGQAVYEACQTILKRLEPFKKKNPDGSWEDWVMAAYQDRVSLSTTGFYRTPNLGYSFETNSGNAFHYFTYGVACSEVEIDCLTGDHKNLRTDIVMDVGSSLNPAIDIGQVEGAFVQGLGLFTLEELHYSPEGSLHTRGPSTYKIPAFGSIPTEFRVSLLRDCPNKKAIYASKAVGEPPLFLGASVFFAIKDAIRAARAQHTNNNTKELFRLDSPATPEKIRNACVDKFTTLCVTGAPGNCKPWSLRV
T1 sequence (P53341 whole entry): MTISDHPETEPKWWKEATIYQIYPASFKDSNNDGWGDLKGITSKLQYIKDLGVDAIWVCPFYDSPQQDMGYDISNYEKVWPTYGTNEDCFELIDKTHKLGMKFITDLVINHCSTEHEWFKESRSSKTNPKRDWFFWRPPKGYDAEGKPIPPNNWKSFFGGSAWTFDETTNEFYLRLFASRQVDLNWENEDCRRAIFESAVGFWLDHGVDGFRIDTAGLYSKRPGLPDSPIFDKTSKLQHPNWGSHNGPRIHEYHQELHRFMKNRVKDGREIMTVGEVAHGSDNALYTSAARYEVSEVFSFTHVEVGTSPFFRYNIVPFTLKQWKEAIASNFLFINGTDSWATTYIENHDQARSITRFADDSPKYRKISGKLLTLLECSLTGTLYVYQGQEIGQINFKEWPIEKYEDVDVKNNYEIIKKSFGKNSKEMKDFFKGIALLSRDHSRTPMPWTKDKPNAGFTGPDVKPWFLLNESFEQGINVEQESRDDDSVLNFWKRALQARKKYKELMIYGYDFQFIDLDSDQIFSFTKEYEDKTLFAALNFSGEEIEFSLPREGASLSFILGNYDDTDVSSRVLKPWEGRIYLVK

SMILES | DPPH % scavenging at 10.4 µg/mL [1] | IC50 [2, 5] | IC50 [3, 6] | Xanthine oxidase % inhibition at a concentration of 17 µg/mL [4] | DPPH IC50 (concentration to give 50% scavenging) [1] | IC50 ([2]; α-Glucosidase IC50, 37 °C) | IC50 ([3]; 15-Lipoxygenase IC50, linoleic acid 134 µM) | inhibition at 42 µg/mL ([4]; 42 µg/mL, read-out: Xanthine oxidase % inhibition at a concentration of 42 µg/mL) | inhibition at 17 µg/mL ([4]; read-out: Xanthine oxidase % inhibition at a concentration of 17 µg/mL, 17 µg/mL) | inhibition at 42 µg/mL [4, 7]
Oc1cc(O)c2cc(OC3OCC(O)C(O)C3O)c(-c3ccc(O)c(O)c3)[o+]c2c1 (centres unmarked) [Compound 4, cyanidin 3-xyloside] | 25.0 ± 5.0 ^^ % | 13.1 µM | > 198 µM | 11.4 ± 2.8% |  |  |  |  |  | 
Oc1cc(O)c2c(c1)O[C@H](c1ccc(O)c(O)c1)[C@H](O)[C@H]2c1c(O)cc(O)c2c1O[C@H](c1ccc(O)c(O)c1)[C@H](O)C2 [Compound 5, procyanidin B2] |  |  |  |  | 4.7 ± 0.3 ^# µg/mL | 8.12 µM | 113 µM | 12.7 ± 2.8% |  | 
O=c1c(O)c(-c2ccc(O)c(O)c2)oc2cc(O)cc(O)c12 [Quercetin, quercetin, reference compound] |  |  |  |  | 3.0 ± 0.2 ^# µg/mL |  |  |  |  | 
OCC1OC(Oc2cc3c(O)cc(O)cc3[o+]c2-c2ccc(O)c(O)c2)C(O)C(O)C1O (centres unmarked) [Compound 1, cyanidin 3-galactoside] | 39.0 ± 2.9 ^^ % | 3.43 µM | 159 µM |  |  |  |  |  | 11.9 ± 4.4% | 
Oc1cc(O)c2cc(OC3OCC(O)C(O)C3O)c(-c3ccc(O)c(O)c3)[o+]c2c1 (centres unmarked) [Compound 3, cyanidin 3-arabinoside] | 40.0 ± 0.4 ^^ % | 0.882 µM | 140 µM | 39.1 ± 2.1% |  |  |  |  |  | 
Oc1cc(O)c2c(c1)O[C@H](c1ccc(O)c(O)c1)[C@H](O)[C@H]2c1c(O)cc2c(c1O)C[C@@H](O)[C@@H](c1ccc(O)c(O)c1)O2 [Compound 6, epi-(4β→6)-epi (B5)] |  | 9.51 µM | 125 µM |  | 5.2 ± 0.1 ^# µg/mL |  |  |  |  | 6.6 ± 0.7%
OCC1OC(Oc2cc3c(O)cc(O)cc3[o+]c2-c2ccc(O)c(O)c2)C(O)C(O)C1O (centres unmarked) [Compound 2, cyanidin 3-glucoside] | 37.0 ± 0.9 ^^ % | 1.94 µM | 163 µM | 20.9 ± 3.4% |  |  |  |  |  | 
Oc1cc(O)c2c(c1)O[C@H](c1ccc(O)c(O)c1)[C@H](O)[C@H]2c1c(O)cc(O)c2c1O[C@H](c1ccc(O)c(O)c1)[C@H](O)[C@H]2c1c(O)cc(O)c2c1O[C@H](c1ccc(O)c(O)c1)[C@H](O)C2 [Compound 7, epi-(4β→8)-epi-(4β→8)-epi (C1)] |  |  | 66.5 µM |  | 3.2 ± 0.1 ^# µg/mL | 4.38 µM |  |  |  | 15.5 ± 1.5%

— PMC3705312, “Extracts, Anthocyanins and Procyanidins from Aronia melanocarpa as Radical Scavengers and Enzyme Inhibitors” (Nutrients, 2013)
